# Data published in patent US20090238792A1, “SUPPRESSION OF POSTOPERATIVE ILEUS” (University of Pittsburgh of the Commonwealth System of …, priority 2007, published 2009).
# Tests used:
# [1] = tested on: MPO positive leukocytes in the intestinal muscularis; test: Myeloperoxidase (MPO) histochemistry: leukocyte infiltration in muscularis whole-mounts; assay type: in vivo, rat; conditions: manipulated rats, 24 h postoperatively; glycine 170 mg/kg or valine (263.5 mg/kg); SM vehicle 95±6.4
# Method: (§1) Age matched animals treated with vehicle (normal saline) or valine (263.5 mg/kg, osmotic control) at appropriate time points and at equal volumes served as controls.
# (§2) The rodent intestine was subjected to a standardized degree of surgical manipulation as described previously (14). Rats were anesthetized by isoflurane inhalation and the abdomen was opened by a midline laparotomy. The cecum was eventrated and laid out onto a moist gauze. Then, the intestine was inspected along its length and gently compressed using moist cotton applicators. The midline incision was closed by two layers of continuous sutures. All operative procedures were performed under sterile conditions with the intestine being handled only by instruments and never touched directly. Animals were killed at specific time points postoperatively by isoflurane anesthesia inhalation overdose and heart incision.
# Histochemistry and Immunohistochemistry: Leukocyte infiltration was quantified on rat whole-mounts of the intestinal muscularis as described previously (N=6-8) (43). Myeloperoxidase (MPO) positive cells were detected using a mixture of 30 mg Hanker-Yates reagent, 30 ml KRB and […] 3% hydrogen peroxide for 10 minutes. Leukocytes were counted in 5 randomly chosen areas in each specimen (3 specimen per animal) at a magnification of 200×.
# (§3) Methods: ACI-rats (180-220 g) underwent standardized surgical manipulation of the intestine. […] Age matched animals treated with vehicle or valine (osmotic control) at appropriate time points and at equal volumes served as controls. […] Postoperative mediator mRNA expression in the intestinal muscularis was determined by real-time RT PCR. Leukocyte extravasation was investigated in muscularis whole-mounts. Nitrite production was measured in muscularis cultures. In vivo transit of FITC-dextran was measured using geometric center analysis (GC). In vitro circular muscle contractility was assessed in a standard organ bath. Statistical analysis: unpaired Student t test, p<0.05, mean±SEM.
# prostanoids [2] = test: Prostanoid release (ELISA) from organ cultured muscularis; assay type: in vivo, rat; conditions: manipulated rats, glycine 170 mg/kg or valine
# Method: Age matched animals treated with vehicle (normal saline) or valine (263.5 mg/kg, osmotic control) at appropriate time points and at equal volumes served as controls. The rodent intestine was subjected to a standardized degree of surgical manipulation as described previously (14). Rats were anesthetized by isoflurane inhalation and the abdomen was opened by a midline laparotomy. The cecum was eventrated and laid out onto a moist gauze. Then, the intestine was inspected along its length and gently compressed using moist cotton applicators. The midline incision was closed by two layers of continuous sutures. All operative procedures were performed under sterile conditions with the intestine being handled only by instruments and never touched directly. Animals were killed at specific time points postoperatively by isoflurane anesthesia inhalation overdose and heart incision. The synthesis of prostanoids released into the tissue culture supernatant over a period of 24 hours was assayed by ELISA. After incubation the culture median and tissue was inspected, 500 μL aliquots of supernatant were frozen in liquid nitrogen and stored at −80° C. The muscle tissue was blotted dry and weighed. Culture supernatants were assayed for the measurement of prostaglandin secretion by enzyme immunoassay (Cayman Chemicals, Ann Arbor, Mich.). The ELISA was carried out in a 1:10 and 1:30 dilution. The assay was corrected for wet tissue weights and the prostaglandin ELISA kit sensitivity was 20 pg/ml.
# nitrite (nitric oxide) = test: Nitrite release (Griess reaction) from organ cultured muscularis; assay type: in vivo, rat; conditions: manipulated rats, glycine 170 mg/kg or valine
# Method: as §1, §2
# Tissue culture and determination of nitrite and prostanoid release in supernatant: The rat small intestine and colon were processed for tissue culture at 24 hours as described previously, (N=5-8) (25). Briefly, the muscularis was isolated by stripping the muscularis from the mucosa and then cut into small pieces and washed twice in Hank's balanced salt solution (HBSS) with 100 U/ml penicillin G and 100 μg/ml streptomycin. Aliquots of muscularis ([…]) were incubated (37° C., 5% CO2) in 6-well tissue culture plates containing 3 ml of supplemented Dulbecco's modified Eagle medium (DMEM)-F12 with 100 U/ml penicillin G and 100 μg/ml streptomycin. After an incubation period of 24 hours, 500 μl aliquots of supernatant were collected, frozen in liquid nitrogen and stored at −80° C. The muscle tissue was blotted dry, and the weight was estimated. To estimate the generation of NO from the intestinal muscularis, nitrite production was measured by the Griess reaction (44). Supernatant from the tissue culture was mixed with equal amount of Griess reagent (0.1% N-(1-naphtyl)ethyl-enediamine dihydrochloride and 1% sulfanilamide in 6% phosphoric acid; 1:1) and incubated at room temperature for 10 minutes. The absorbance at 550 nm was measured with a microplate reader and compared with standard prepared from serial dilutions of sodium nitrite. Each standard and supernatant sample was analyzed in duplicate, and the mean value of nitrite production was normalized to the tissue weight.
# as §3
# [3] = tested on: jejunal circular smooth muscle; test: In vitro bethanechol stimulated contractile activity of jejunal circular muscle strips; assay type: in vivo, rat; conditions: manipulated rats, 170 mg/kg glycine or valine pretreatment, 100 mM bethanechol; control 3.2±0.2, SM vehicle 1.9±0.1
# Method: as §1, §2
# Mechanical in vitro activity of the rat mid-jejunum was evaluated at 24 hours postoperatively using smooth muscle strips of the circular muscularis as described previously (rats: N=5-11) (14). After dissection and a 30 minute equilibration period, the individual muscles were incrementally stretched to L0. Then after recording spontaneous contractility for 30 minutes, dose response curves were generated using increasing concentrations of the muscarinic agonist bethanechol ([…]) for 10 minutes and intervening wash periods (KRB) of 10 minutes. The contractile response was recorded and analyzed as g/mm2/sec over a 10 minute period.
# as §3
# [4] = tested on: rats with surgical manipulation of the intestine; test: Rat in vivo gastrointestinal transit of fluorescein-labeled dextran (geometric center); conditions: surgically manipulated rats, 24 h postoperatively, i.v. pretreatment 1 h before surgery; glycine 170 mg/kg, valine 263.5 mg/kg; SM vehicle GC=5.2±0.7
# Method: as §1, §2, §3
# IL-6 mRNA = test: Real-time RT-PCR of muscularis IL-6 mRNA 3 hours postoperatively; assay type: in vivo, rat; conditions: surgically manipulated rats, 3 hours postoperatively
# Method: as §1, §2
# mRNA Expression Analysis: Postoperative mediator mRNA expressions in the small intestinal muscularis were analyzed using SYBR Green two-step real-time RT-PCR as previously described, (N=4-6). […] Total mRNA extraction was performed using the guanidium-thiocyanate phenol-chloroform extraction method. Equal aliquots (200 ng) of total RNA from each sample, quantified by spectrophotometer, were processed for complimentary DNA (cDNA) synthesis. Primer sequences were used as described previously (tumor necrosis factor-a, TNF-a) (35), or designed according to published sequences 36-41, (GenBank accession numbers: NM_017008 [glyceraldehyde phosphate dehydrogenase (GAPDH)], AF233596 [cyclo-oxygenase-2 (COX-2)], NM_012967 [intercellular adhesion molecule-1 (ICAM-1)], M26744 [interleukin-6 (IL-6)] and NM_012611 [inducible nitric oxide synthase (iNOS)]), using Primer Express software (PE Applied Biosystems, Foster City, Calif.) and purchased from Life Technologies (Rockville, Md.). GAPDH was used as an endogenous control. The efficiency and equality of the real-time PCR primer pairs were determined by amplifying serial dilutions of muscularis cDNA. For each target gene different MgCl2 (3 to 5 mM) concentrations were tested to optimize the PCR amplification. […] Relative quantification was performed using the comparative CT method as described by Schmittgen et al. (42).
# Methods: ACI-rats (180-220 g) underwent standardized surgical manipulation of the intestine. […] Postoperative mediator mRNA expression in the intestinal muscularis was determined by real-time RT PCR. […] Nitrite production was measured in muscularis cultures. In vivo transit of FITC-dextran was measured using geometric center analysis (GC). In vitro circular muscle contractility was assessed in a standard organ bath. […]
# [5] = tested on: muscularis neutrophil recruitment; test: Histochemistry on jejunal muscularis whole-mounts: neutrophil recruitment, IL-10 treatment; assay type: in vivo, mice; conditions: IL-10 treatment compared to SM with vehicle
# Method: (§4) Methods: Mice were subjected to surgical intestinal manipulation (SM) to induce ileus. Before and after animals were treated with IL-10 (12.5 μg/kg, s.c.). Gastrointestinal transit and organ bath measured motility. Histochemistry on jejunal muscularis whole-mounts quantified neutrophil recruitment. Muscularis mediator expressions were measured by RT-PCR, Griess reaction, ELISA and Luminex (N=4 each).
# [6] = tested on: GM-CSF, VEGF, IL-1α, IL-6, MCP-1 and MIP-1α; test: Luminex mediator release from muscularis, IL-10 treatment; assay type: in vivo, mice; conditions: SM + IL-10 vs SM
# Method: as §4
# [7] = tested on: IL-6, IL-1β and MCP 1 mRNAs; test: RT-PCR of muscularis mediator mRNAs, IL-10 treatment; assay type: in vivo, mice; conditions: treated animals vs SM
# Method: as §4
# jejunal circular muscle = test: Organ bath: jejunal circular muscle contractions to bethanechol, IL-10 treatment; assay type: in vivo, mice; conditions: SM + IL-10 12.5 μg/kg s.c.; 100 μM bethanechol; SM alone 59.2±4.8%
# Method: as §4
# [8] = tested on: mice subjected to surgical intestinal manipulation (SM); test: Gastrointestinal transit (geometric center) after surgical intestinal manipulation, IL-10 treatment; assay type: in vivo; conditions: SM + IL-10 12.5 μg/kg s.c. before and after; control=10.6±0.3, SM=4.6±0.6
# Method: as §4
# prostanoids [9] = test: ELISA prostanoid release from muscularis, IL-10 treatment; assay type: in vivo, mice; conditions: SM + IL-10; control=4033.4, SM=13111
# Method: as §4
# NO = test: Griess reaction NO release from muscularis, IL-10 treatment; assay type: in vivo, mice; conditions: SM + IL-10; control=47.1, SM=607.7
# Method: as §4
molecule,measurement,setting,value
"CC(C)[C@H](N)C(=O)O [valine, reference compound]",infiltrating MPO positive leukocytes,[1],93±2.7 cells/field at 200×
same,"prostanoid release, fold of control, colon","prostanoids [2]; colonic muscularis 24 h organ culture, SM 3.1-fold",1.5 fold
same,"prostanoid release, fold of control, jejunum","prostanoids [2]; jejunal muscularis 24 h organ culture, SM 5.9-fold",3.4 fold
same,"nitrite release, fold increase over control, colon","nitrite (nitric oxide); colonic muscularis 24 h organ culture, SM vehicle 10.9-fold",9.5 fold
same,"nitrite release, fold increase over control, jejunum","nitrite (nitric oxide); jejunal muscularis 24 h organ culture, SM vehicle 11.4-fold",12.0 fold
same,"mean contractile force, bethanechol stimulated",[3],2.1±0.2 g/mm2/s
same,geometric center (GC) of gastrointestinal transit,[4],6.2±0.5
same,postoperative induction of IL-6 mRNA,IL-6 mRNA,no effect
"interleukin-10 (protein, UniProt P18893 19-178, looked up) Interleukin-10: SRGQYSREDNNCTHFPVGQSHMLLELRTAFSQVKTFFQTKDQLDNILLTDSLMQDFKGYLGCQALSEMIQFYLVEVMPQAEKHGPEIKEHLNSLGEKLKTLRMRLRRCHRFLPCENKSKAVEQVKSDFNKLQDQGVYKAMNEFDIFINCIEAYMMIKMKS",muscularis neutrophil recruitment,[5],significantly less
same,"mediator release (GM-CSF, VEGF, IL-1α, IL-6, MCP-1 and MIP-1α)",[6],significantly diminished
same,"induction of IL-6, IL-1β and MCP 1 mRNAs after SM",[7],less induction
same,"jejunal circular muscle contractions to bethanechol, % of control",jejunal circular muscle,93.6±21.1%
same,geometric center (GC) of gastrointestinal transit,[8],10.8±0.4
same,prostanoids (PG) release,prostanoids [9],3946.7 pg/mL/mg
same,NO release,NO,49.1 µM/g
